The text below walks through data of patent US7030140B2, “Substituted benzimidazole antiviral agents” (Bristol-Myers Squibb Company, priority 1998, dated 2006).

Structures can show the parent of a compound that is named as a salt.

Series [1] deals with respiratory syncytial virus Long strain. As to the kind of experiment: microbe, parasite or virus in culture. It counts as cell-based. To be noted: for % cell protection from RSV at 4 µg/mL: human respiratory syncytial virus, 96 h, 4 μg/mL of compound, RSV Long strain-infected HEp-2 cells, compound added 1 hour post infection, 4 days, MTT.
Series [2] concerns HEp-2 (ATCC CCL 23) cells.
The nature of another series: in vitro. The settings on record: human.

`NC(=O)c1ncn([C@@H]2O[C@H](CO)[C@@H](O)[C@H]2O)n1` [Ribavirin, reference compound]: in series [1] (control compound at 2.5 μg/mL (corresponding to 10.2 μM)), the cell protection was 100%. `CC(=O)CCn1c(Cn2nnc3ccccc32)nc2ccccc21` [Example 37]: the “% Cell protection at 4 μg/mL” value in series [1] amounted to 100%. The compound also showed a CC50 in series [2] of 59 µM. For the compound `O=CCCn1c(Cn2nnc3ccccc32)nc2ccccc21` [Example 30, 1-[(2-Benzotriazol-1-ylmethyl)-1-H-benzimidazol-1-yl]-propionaldehyde], in “in vitro”, the CC50 at 4 days is 108 µM. The compound also returned a % cell protection from RSV at 4 µg/mL in series [1] of 90%. The corresponding values for `N=C(N)CCn1c(Cn2nnc3ccccc32)nc2ccccc21` [Example 45, 3-(2-Benzotriazol-1-ylmethyl-benzimidazol-1-yl)-1-imino-1propyl-amine Diacetate] are 6.3 µM and 74%. The corresponding values for `c1cncc(Cn2c(Cn3nnc4ccccc43)nc3ccccc32)c1` [Example 47, 1-[1-(Pyridin-3-yl-methyl)-1H-benzimidazol-2-ylmethyl]-1H-benzotriazole] are 250 µM and 40%. The corresponding values for `CC(CCn1c(Cn2nnc3ccccc32)nc2ccccc21)CC(C)(C)C` (stereo not drawn) [Example 23, 1-[1-(3,5,5-Trimethyl-hexyl)-1H-benzimidazol-2-ylmethyl]-1H-benzotriazole] are 59 µM and 98%.

In the series “in vitro”, `CC(O)CCn1c(Cn2nnc3ccccc32)nc2ccccc21` (stereo not drawn) [Example 38] had a CC50 at 4 days greater than 309 µM. The compound further returned a % cell protection from RSV at 4 µg/mL in series [1] of 100%. For `CC(C)(C)C(O)Cn1c(Cn2nnc3ccccc32)nc2ccccc21` (stereo not drawn) [Example 27, 1-(2-Benzotriazol-1-ylmethyl-1-H-benzimidazol-1-yl)-3,3-dimethylbutan-2-ol] the same measures were 117 µM and 44%.

Compound `c1ccc2c(c1)nnn2Cc1nc2ccccc2n1CC1OCCO1` [Example 28] displayed a CC50 at 4 days in “in vitro” of 29 µM. Further, the % cell protection from RSV at 4 µg/mL in series [1] came out at 61%. With `CNC(=O)Cn1c(Cn2nnc3ccccc32)nc2ccccc21` [Example 35, 2-(2-Benzotriazol-1-ylmethyl-benzimidazol-1-yl)-N-methyl acetamide], the CC50 at 4 days in the series “in vitro” came out at 230 µM. In addition, the % cell protection from RSV at 4 µg/mL in series [1] came to 58%. For `[N-]=[N+]=NCCn1c(Cn2nnc3ccccc32)nc2ccccc21` [Example 33, 1-[1-(2-Azido-ethyl)-1-H-benzimidazol-2-ylmethyl)-1H-benzotriazole] the same measures were 75 µM and 82%. In the series “in vitro”, `O=C(O)CCn1c(Cn2nnc3ccccc32)nc2ccccc21` [Example 43] came in with a CC50 at 4 days greater than 309 µM. The compound also showed a % cell protection from RSV at 4 µg/mL in series [1] of 82%.

Compound `CC(C)CCCn1c(Cn2nnc3ccccc32)nc2ccccc21` [Example 22, 1-[1-(4-Methylpentyl)-1H-benzimidazol-2-ylmethyl]-1H-benzotriazole] returned a CC50 at 4 days in the series “in vitro” of 15 µM. This compound came in with a % cell protection from RSV at 4 µg/mL in series [1] of 75%. For `NC(=O)CCn1c(Cn2nnc3ccccc32)nc2ccccc21` [Example 41, 3-(2-Benzotriazol-1-ylmethyl-1-H-benzimidazol-1-yl)-propionamide] the same measures were 4.3 µM and 75%. In the series “in vitro”, `CC(C)CCn1c(Cn2nc3ccccc3n2)nc2ccccc21` [Example 61, 2-[1-(3-methylbutyl)-1H-benzimidazol-2-ylmethyl]-2H-benzotriazole Dihydrochloride] yielded a CC50 at 4 days of 27 µM. In addition, the % cell protection from RSV at 4 µg/mL in series [1] came to 78%.

In the series “in vitro”, `C[S+]([O-])CCn1c(Cn2nnc3ccccc32)nc2ccccc21` (stereo not drawn) [Example 25, 1-[1-(2-Methylsulfinyl-ethyl)-1H-benzimidazol-2-ylmethyl]-1H-benzotriazole] registered a CC50 at 4 days of 56 µM. The same compound displayed a % cell protection from RSV at 4 µg/mL in series [1] of 100%. For `CC(N)CCn1c(Cn2nnc3ccccc32)nc2ccccc21` (stereo not drawn) [Example 40, 3-(2-Benzotriazol-1-ylmethyl-benzimidazol-1-yl)-1-methyl-propylamine] the same measures were 8.5 µM and 96%. The corresponding values for `CSCCn1c(Cn2nnc3ccccc32)nc2ccccc21` [Example 24, 1-[1-(2-Methylthio-ethyl)-1H-benzimidazol-2-ylmethyl]-1H-benzotriazole] are 165 µM and 100%. The corresponding values for `c1ccc(Cn2c(Cn3nnc4ccccc43)nc3ccccc32)cc1` [Example 46, 1-[(1-Phenylmethyl-1H-benzimidazol)-2-ylmethyl]-1H-benzotriazole] are 97 µM and 53%. In the series “in vitro”, `c1ccc2c(c1)nnn2Cc1nc2ccccc2n1CCC1OCCO1` [Example 29] displayed a CC50 at 4 days of 185 µM. The compound further returned a % cell protection from RSV at 4 µg/mL in series [1] of 98%. In “in vitro”, `OCCn1c(Cn2nnc3ccccc32)nc2ccccc21` [Example 31, 2-(2-Benzoatrizol-1-ylmethyl-benzimidazol-1-yl)-ethanol] returned a CC50 at 4 days of 21 µM. The compound further had a % cell protection from RSV at 4 µg/mL in series [1] of 48%. Regarding `CS(=O)(=O)OCCn1c(Cn2nnc3ccccc32)nc2ccccc21` [Example 32, Methanesulfonic Acid, 2-(2-benzotriazol-1-ylmethyl-benzimidazol-1-yl)-ethyl ester], the CC50 at 4 days in “in vitro” is 71 µM. Besides, the % cell protection from RSV at 4 µg/mL in series [1] was found to be 60%.

`CCCCn1c(Cn2nnc3ccccc32)nc2ccccc21` [Example 19, 1-(1-Butyl-1H-benzimidazol-2-ylmethyl)-1H-benzotriazole] yielded a CC50 at 4 days in “in vitro” of 12 µM. The % cell protection from RSV at 4 µg/mL in series [1] was 95%. In the series “in vitro”, `N/C(CCn1c(Cn2nnc3ccccc32)nc2ccccc21)=N\O` [Example 44, N-[3-(2-Benzotriazol-1-ylmethyl-benzimidazol-1-yl)-1-imino-propyl)-hydroxyamine] yielded a CC50 at 4 days of 16 µM. In series [1], this compound showed a % cell protection from RSV at 4 µg/mL of 91%. For `OC(Cn1c(Cn2nnc3ccccc32)nc2ccccc21)c1ccccc1` (stereo not drawn) [Example 50, 2-[(2-Benzotriazol-1-ylmethyl)-benzimidazol-1-yl]-1-phenyl-ethanol] the same measures were 36 µM and 94%. For `CS(=O)(=O)CCn1c(Cn2nnc3ccccc32)nc2ccccc21` [Example 26, 1-[1-(2-Methylsulfonyl-ethyl)-1H-benzimidazol-2-ylmethyl]-1H-benzotriazole] the same measures were 200 µM and 100%. For `CC(C)CCn1c(Cn2nnc3ccccc32)nc2ccccc21` [Example 20, 1-[1-(3-Methylbutyl)-1H-benzimidazol-2-ylmethyl)-1H-benzotriazole] the same measures were 40 µM and 87%.

Take `CC(C)=CCn1c(Cn2nnc3ccccc32)nc2ccccc21` [Example 21, 1-[1-(3-Methyl-2-butenyl)-1H-benzimidazol-2-ylmethyl]-1H-benzotriazole]: in the series “in vitro”, the CC50 at 4 days was determined as 69 µM. Besides, in series [1], the % cell protection from RSV at 4 µg/mL is 98%. The corresponding values for `CC(CCn1c(Cn2nnc3ccccc32)nc2ccccc21)=NO` [Example 39] are greater than 33 µM and 100%.

As to `CC(C)(C)OC(=O)CCn1c(Cn2nnc3ccccc32)nc2ccccc21` [Example 42], the CC50 at 4 days in “in vitro” is 168 µM. Also, the % cell protection from RSV at 4 µg/mL in series [1] was 100%. The corresponding values for `c1ccc(CCn2c(Cn3nnc4ccccc43)nc3ccccc32)cc1` [Example 48, 1-[1-(2-Phenethyl)-1-H-benzimidazol-2-ylmethyl)-1H-benzotriazole] are 2.6 µM and 95%.

Take `O=C(Cn1c(Cn2nnc3ccccc32)nc2ccccc21)c1ccccc1` [Example 49, 2-[(2-Benzotriazol-1-ylmethyl)-benzimidazol-1-yl]-1-phenyl-ethanone]: the CC50 at 4 days in the series “in vitro” is 18 µM. Also, in series [1], the % cell protection from RSV at 4 µg/mL is 76%.
